# Measured values taken from patent US7498304B2, “Angiogenesis-modulating compositions and uses” (Curis, Inc., priority 2002, dated 2009).
# Legend:
# mouse cornea = assay: mouse corneal pocket model of angiogenesis; assay type: in vivo
# Description: To confirm the angiogenic activity of hedgehog in another well accepted model of angiogenesis, we tested the ability of hedgehog protein to induce neovascularization in the mouse corneal model pocket model of angiogenesis.
# Animals were anesthetized by pentobarbital intraperitoneal injection (160 mg/kg). Corneal pockets were created in the eyes of each mouse and a 0.34×0.34 mm sucrose albumin sulfate (Bukh Meditec, Vaerlose, DK) pellet coated with hydron polymer type NCC (Interferon Sciences, New Brunswick, N.J.) containing 1 of the agents indicated below was implanted into the corneal pocket. […] mice were divided into 5 groups: control buffer alone; VEGF 300 ng/pellet; Myr-Shh vehicle alone; Myr-Shh 1.5 microg/pellet […]; Myr-Shh+VEGF (1.5 microg/pellet +300 ng/pellet, respectively). Pellets were positioned 1.0 mm from the corneal limbus, and erythromycin ophthalmic ointment (E. Fourera) was applied to each operated eye. The corneas of all mice were routinely examined by slit-lamp biomicroscopy on postoperative day 6 after pellet implantation.
# On the same day vessel length and corneal circumferential neovascularity (in degrees) were measured. After completing these measurements, C57BL/6J mice received an intravenous injection of […] of BS-1 lectin FITC-conjugated (Vector Laboratories, Burlingame, Calif.). Thirty minutes later, the animals were sacrificed. The eyes were enucleated and fixed in 1% paraformaldehyde solution. After fixation, the corneas were placed on glass slides and examined by fluorescence microscopy.
# To determine the mechanism by which Shh induces angiogenesis both Shh and VEGF-stimulated corneas (see Example 3) were excised and X-gal stained as described in Example 1 after fixation of the whole eye for 1 hour in 1% paraformaldehyde followed by enucleation and fixation of the corneal hemisphere in 1% paraformaldehyde for 30 minutes. […] Endothelial cell immunostaining was done with a rat monoclonal antibody against mouse CD-31 (Pharmigen, San Diego, Calif.) followed by a biotinylated goat anti-rat immunoglobulin secondary antibody. Smooth muscle cells and pericytes were identified with a mouse monoclonal antibody against SM a-actin conjugated with alkaline-phosphatase (Sigma, St. Louis, Mo.) and fibroblasts were identified using an anti-vimentin antibody (Sigma, St. Louis, Mo.).
# We then immunostained the Shh-induced corneas with a rabbit polyclonal anti-VEGF antibody (Santa Cruz Biotechnology, Santa Cruz, Calif.) with a biotinylated goat anti-rabbit immunoglobulin as secondary antibody.
# [1] = test system: vascular smooth muscle cells (PAC 1), normal human lung fibroblasts, normal prostate stromal cells; assay: ptc 1 RT-PCR in smooth muscle cells, lung fibroblasts and prostate stromal cells; assay type: cell-based; details: 1 ug/ml for 2 days, vs vehicle
# Description: Eighty five percent confluent monolayers of vascular smooth muscle cells (PAC 1) were induced for 2 days with 1 ug/ml of myrShh or an equivalent volume of vehicle in normal media (M 199 complete media with 10% fetal bovine serum). For comparison, primary normal human lung fibroblasts and normal prostate stromal cells were grown in complete FBM and similarly stimulated (Clonetics/Bio-Whittaker, Walkersville, Md.). The cells were harvested and RNA from the cells was prepared and analysed by RT-PCR as above. […] In addition, hedgehog protein induced DNA synthesis in quiescent vascular SMCs and human fibroblasts. PAC-1 (Rothman et al., 1992), WKY (Lemire et al., 1994), primary pulmonary artery SMCs or aortic SMCs (Clonetics/Bio-Whittaker, Walkersville, Md.) were plated (5×10^3/well) in 96 well plates and allowed to adhere for 2-3 hours in 0.18 ml of complete media (M 199 with 10% fetal bovine serum for PAC 1 cells, DMEM with 10% fetal bovine serum for WKY cells or smGM-2 for primary human pulmonary artery or aortic SMCs). The cells were then starved for 18-24 hours in complete media with 0.5% fetal bovine serum. […] 3H-thymidine uptake into cells was determined by scintillation counting using a 1205 Betaplate counter (Wallac, Gaithersburg, Md.).
# [2] = test system: normal human fibroblasts (CCD37); assay: normal human fibroblasts (CCD37), competitive RT-PCR and VEGF165 ELISA; assay type: cell-based
# Description: To determine if hedgehog can directly induce fibroblasts to produce VEGF or other angiogenic factors, we treated normal human fibroblasts (CCD37) with Myr-Shh and the ability of fibroblasts to respond was evaluated by competitive RT-PCR for ptc 1 and several angiogenic growth factors. Total RNA was prepared from cells treated as described above using Trizol (Life Technologies, Rockville, Md.). Four micrograms of total RNA was used to prepare cDNA using the SuperScriptTM preamplification system (Cat. No. 18089-011, Life Technologies, Rockville, Md.). The PCR reaction using buffer reagents from the SuperScriptTM preamplification system (Life Technologies, Rockville, Md.) was quantitated with […] competitive primers (Ambion). Primers for the amplification of Ptc 1 were [NT] ID NO: 38) and [NT] ID NO: 39) which are based on ptc1 cDNA sequence (GenBank Accession Number U46155). All amplification for Ptc1 were done with 25 cycles of 94° C. for 30 sec; 55° C. for 1 min; 72° C. for 1 min. The cDNA from the same cells was also used as a template for VEGF, bFGF, Angiopoietin 1, and Angiopoietin II amplification. The following primer pairs and PCR cycles were used: […] [NT] ID NO: 40) and [NT] ID NO: 41) which are based on the human VEGF cDNA sequence (GenBank Accession Number E15157). VEGF product was amplified with 30 cycles of 94° C. for 30 sec; 62° C. for 1 min; 72° C. for 1 min; bFGF: [NT] ID NO: 42) and [NT] ID NO: 43) which is based on the human bFGF cDNA sequence (GenBank Accession Number M27968). bFGF product was amplified with 25 cycles of 94° C. for 30 sec; 62° C. for 1 min; 72° C. for 1 min; Angiopoietin I [NT] ID NO: 44) and [NT] ID NO: 45) which is based on human Angiopoietin I cDNA sequence (GenBank Accession Number U83508). Angiopoietin I product was amplified with 25 cycles of 94° C. for 30 sec; 64° C. for 90 sec; Angiopoietin II: [NT] ID NO:46) and [NT] ID NO: 47) which are based on human Angiopoietin II cDNA sequence (GenBank Accesion Number AB009865). Angiopoietin II product was amplified with 32 cycles of 94° C. for 30 sec; 64° C. for 90 sec. As internal control for sample preparation, gel loading, and random variations in RT-PCR, 18S rRNA primers and 18S rRNA competimers (Ambion, Austin, Tex.), used to modify 18S cDNA amplification efficiency, were included in each PCR reaction with target gene-specific primers. The linear range of amplification and optimal 18S primer/Competimer ratio was determined for each target gene following the manufacturer's recommendations (Ambion, Austin, Tex.). […] VEGF 121, 165, and 189 upregulation began at 12 hours and was maximal after 48 hours of incubation of the cells with Shh. […] Cells were stimulated with recombinant human myristolated Shh protein as described above. At harvest, the cell conditioned media was collected, centrifuged to remove cell debris (15 minutes at 1500×g) and production of VEGF165 protein was evaluated by using an ELISA kit (Quantikine human VEGF, R&D Systems, Minneapolis, Minn.).
# [3] = test system: human umbilical vein and microvascular endothelial cells; assay: response of endothelial cells to Hh; assay type: cell-based
# [4] = test system: Shh signaling pathway in MEFs homozygous for ptc-lacZ (cell line 23-1); assay: β-galactosidase activity in ptc-lacZ homozygous mouse embryonic fibroblasts; assay type: cell-based; details: normalized to whole protein content
# Description: These studies involve the use of mouse embryonic fibroblasts (MEFs) that were generated by trypsin digestion of E8.5 embryos from patched (ptc) ±matings. […] Thus, in these ptc−/− embryos, the Shh signaling pathway is activated in many tissues, and the lacZ gene product β-galactosidase is expressed in all of those tissues as a report of pathway activation.
# The Shh signaling pathway can be activated in these fibroblasts in cell culture, and that the level of β-galactosidase activity does reflect the degree of pathway activation. The MEF line 23-4 is heterozygous for ptc-lacZ, and thus contains one functional ptc allele capable of maintaining a repressed state of the pathway, but will express lacZ when the pathway is activated by addition of Shh protein.
# [5] = pellet: Myr-Shh 1.5 microg or VEGF 300 ng
molecule,measurement,setting,value
Myr-Shh: recombinant human myristolated Shh protein (myristylated Sonic hedgehog),X-gal staining (Ptc 1 expression) of corneas,mouse cornea; Ptc1-lacZ corneas,strong X-gal staining
same,VEGF immunostaining of corneas,mouse cornea; anti-VEGF antibody,VEGF protein is in the fibroblasts and matrix immediately adjacent to the neovascular area
same,density of vessels,mouse cornea; compared with VEGF,slightly lower
same,maximum vessel lengths,mouse cornea; [5],1020+200 um
same,vessel diameters (mean),mouse cornea; [5],33±17 um
same,neovascular growth,"mouse cornea; pellet: Myr-Shh 1.5 microg or VEGF 300 ng, day 6",significant neovascular growth
same,"vessel length, circumferential neovascularity and diameter of the lumens",mouse cornea; summary,statistically significant increase
same,ptc 1 expression,[1],increased ptc 1 expression
same,"start of VEGF 121, 165 and 189 upregulation",[2],12 h
same,"time of maximal VEGF 121, 165 and 189 upregulation",[2],48 h
same,time of maximal increase of Ang-1 and Ang-2,[2],36 h
same,"VEGF mRNA isoforms (VEGF121, 165, 189)",[2]; RT-PCR,strongly upregulated
same,bFGF mRNA,[2]; any time-points,No bFGF upregulation was detectable
same,"VEGF production (VEGF165 protein in cell media, ELISA)",[2]; at 72 hours,significant upregulation
same,Ang-1 and Ang-2 mRNA,[2]; quantitative RT-PCR,upregulation of both genes
same,Ptc1 gene expression,[2]; time course,upregulating the Ptc1 gene
same,response to Hh,[3],Neither human umbilical vein and microvascular endothelial cells respond
C[C@H]1CC[C@]2(NC1)O[C@H]1C[C@H]3[C@@H]4CC[C@H]5C[C@@H](O)CC[C@]5(C)[C@H]4CC[C@]3(C)[C@H]1[C@@H]2C [tomatidine],β-galactosidase activity,[4],cannot be achieved
